# Source: patent US20200276256A1, “SKIN CARE COMPOSITION” (ISN Pharma SP.Z.O.O., priority 2017, published 2020)
# Legend:
# [1] = system: HaCaT cell line infected with HHV-1; experiment: Cell Count Assay (NucleoCounter NC-3000), HHV-1 infected cells; type: cell-based, human; details: Control + acyclovir, HHV-1 infected HaCaT
# Method: Next, cell viability additionally in the presence of the Herpes virus was investigated with a Cell Count Assay (NucleoCounter NC-3000). An HHV-1 suspension was added to HaCaT cell line and incubated for 1 hour to enable adsorption of virus to cells; the cells were then incubated with the extract, in the respective dilution ratios, for 24 hrs.
# [2] = system: HHV-1; experiment: Confocal microscopy, direct immunofluorescence staining of infected HaCaT cells; type: cell-based, Human herpesvirus 1; details: acyclovir added to infected HaCaT; 48 hrs after infection; FIG. 19
# Source text: Confocal microscopy (microscope magnification—60×, digital zoom) was used to view the cell structure status and positioning 48 hrs after infection with HHV-1 (FIG. 18). The method of direct immunofluorescence staining wherein the nucleus—blue (A), viral antigen —green (B), actin—red (C), nucleus/actin (D) helps further understand the structural changes in the cells. The same confocal microscopy technique was used to view the cell structure status and positioning after HHV-1 infection and treatment with Kalanchoe daigremontiana. As before the method of direct immunofluorescence staining is nucleus—blue (A), viral antigen—green (B), actin—red (C), nucleus/actin (D).
# [3] = system: HaCaT cell line infected with HHV-1; experiment: Vitality VB-48 Assay, HHV-1 infected cells; type: cell-based, human; details: Control + acyclovir, mean
# Method: Vitality VB-48 Assay (NucleoCounter NC-3000) was used to determine the percentage estimation of keratinocytes of varied degrees of viability after 24 h incubation with Kalanchoe daigremontiana extract.
# An HHV-1 suspension was added to HaCaT cell line and incubated for 1 hour to enable adsorption of virus to cells. Afterwards, the cells were incubated with a plant extract of the respective dilution for 24 hrs to assess the viability of the keratinocytes with HHV-1 incubated with the respective dilutions of the extract of the invention as compared with Acyclovir.
smiles,measurement,setting,value
Nc1nc2c(ncn2COCCO)c(=O)[nH]1 [acyclovir],All cells Cell %,[1],79.67%
same,All cells Mean intensity,[1],160070.3
same,All cells Number of cells,[1],7648
same,Dead cells Cell %,[1],24.05%
same,Dead cells Mean intensity,[1],152872.9
same,Dead cells Number of cells,[1],5683
same,Viability [%],[1],25.7%
same,Viability [%],[1]; listed as Acyclovir,25%
same,amount of viral antigen,[2],lower amount of viral antigen
same,dead cells %,[3],77.1%
same,healthy cells %,[3],3.27%
same,lower viability cells %,[3],19.51%
